Measured values from US8420657B2 (Novartis AG, priority 2008, dated 2013).

Assays:
GST-JAK2(808-1132) = target: T1, GST-JAK2(808-1132) (Homo sapiens, UniProt O60674); test: JAK2 kinase assay (Caliper mobility shift, LabChip 3000); format: biochemical
T1 construct: GST-JAK2(808-1132); purchased Invitrogen (Carlsbad, USA) #4288
Procedure, shortened: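 Eight-point compound series (final 10–0.003 μM) tested on purchased GST-JAK2 kinase domain (808-1132). Peptide FITC-JAK3tide plus ATP reacted 60 min, 30 °C, then quenched with EDTA; turnover from charge-based separation of substrate and product.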

[1] = test system: JAK2-dependent nuclear translocation of STAT5-GFP in U-2 OS osteosarcoma cells; test: STAT5 nuclear translocation assay (Cellomics), rhEpo stimulated U-2 OS STAT5-GFP cells; format: cell-based; conditions: Homo sapiens, U2OS; STAT5 translocation pathway
Text: The medium-throughput (96-well format) cellular automated fluorescence microscopy Cellomics assay can be routinely used to assess the functional activation of Janus Kinases (JAKs), based on the nuclear translocation of their substrate, Signal Transducer and Activator of Transcription (STAT). Nuclear translocation can be monitored either in HT1080 fibrosarcoma cells stably transfected with STAT1 fused to Green Fluorescence Protein (GFP) or in U-2 OS osteosarcoma cells stably transfected with STAT5 fused to Green Fluorescence Protein (GFP). Stimulation of HT1080 cells with interferon-γ (IFN-γ) results in JAK1/JAK2-dependent nuclear translocation of STAT1-GFP, whereas stimulation of U-2 OS cells with recombinant human erythropoietin (rhEpo) results in JAK2-dependent nuclear translocation of STAT5-GFP, both of which can be quantified using the Cellomics Cyto/NucTrans software package. This assay may be used to provide an assessment of the nuclear-cytoplasmic differential (NCD) of STAT-GFP using Hoechst dye to define the boundaries of the nucleus.
U-2 OS osteosarcoma cells may be obtained from ATCC and can be cultured in standard RPMI medium supplemented with 10% FCS and 2 mM L-glutamine. Cells can be stably transfected with STAT5a-GFP using Lipofectamine following the manufacturers' protocol. 24 hours after transfection the medium can be replaced and selected in 400 μg/ml Geneticin. Subsequently, cells can be stably transfected with EpoR using Lipofectamine following the manufacturers' protocol. 24 hours after transfection the medium can be replaced and cells selected in 100 μg/ml Hygromycin B.
Compounds can be dissolved in DMSO to a final stock concentration of 10 mM and stored as aliquots at 4° C. Compounds may be pre-diluted in 100% DMSO at 10 mM, 3 mM 1 mM, 0.3 mM, 0.1 mM, 0.03 mM, 0.01 mM and 0.003 mM. Subsequently, compounds may be diluted in medium and added in 50 μl to the cells. The final compound concentrations tested may be 10 μM, 3 μM 1 μM, 0.3 μM, 0.1 μM, 0.03 μM, 0.01 μM and 0.003 μM and the final DMSO concentration can be 0.1%.
U-2 OS may be seeded at a cell density of 12,000 cells per well in clear-bottom black 96-well Packard View-Plates™. The following day, medium can be removed and replaced with medium containing either the vehicle (DMSO) or increasing concentrations of test compounds for 30 minutes at 37° C. Cells can then be stimulated for 1 hour by adding 10 μl per well of 50 U/ml rhEpo to obtain 5 U/ml of rhEpo as the final concentration. Following treatments, cells can fixed and processed as described above.
The plates can be read on a Cellomics® ArrayscanII automated fluorescence microscope plate reader equipped with a Mercury-Xenon white light illumination source and a Zeiss Axiovert inverted microscope, using the XF100 dichroic/emission filter cube and matching excitation filters, 10× magnification, and a 0.3 numerical aperture objective. Image acquisition and analysis can be performed using a customized protocol based on the ‘NuclearTranslocation’ Bioapplication. For each well, multiple images (fields) can be acquired until a minimum of 1000 cells are counted using two 2 channels: Channel 1 (Hoechst)=focus+nuclear mask, Channel 2 (GFP)=signal quantification in mask areas as outlined below. Nuclei may be first identified based on the Hoechst staining and a mask generated for each nucleus that then serves as a template to generate a circle (eroded inwards by 1 pixel) and a 3 pixel-wide collar-like ring (off-set outwards by 1 pixel), in which the nuclear and cytoplasmic intensity of GFP, respectively, are quantified in the corresponding channel. High content analysis yields numerous measurements per cell and the GFP intensity differential between the nuclear and the cytoplasmic masks may be chosen as a measure of sub-cellular STAT-GFP relocation. The resulting values may be averaged for all cells in the well to return a single measurement plus standard deviation. […]

T1 sequence (O60674 808-1132): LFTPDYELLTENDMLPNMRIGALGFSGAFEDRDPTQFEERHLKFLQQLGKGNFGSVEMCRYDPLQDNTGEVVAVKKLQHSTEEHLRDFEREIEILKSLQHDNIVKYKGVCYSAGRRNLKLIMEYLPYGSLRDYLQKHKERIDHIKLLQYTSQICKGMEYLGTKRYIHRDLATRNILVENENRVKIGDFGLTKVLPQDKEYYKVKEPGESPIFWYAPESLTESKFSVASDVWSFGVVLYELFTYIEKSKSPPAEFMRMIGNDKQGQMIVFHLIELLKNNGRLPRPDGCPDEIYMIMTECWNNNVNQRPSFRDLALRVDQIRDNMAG

| IC50 (GST-JAK2(808-1132)) | IC50 [1] | Compound |
| --- | --- | --- |
| ≤ 3 nM | 1.3 nM | Fc1cc(-n2ccc3cnc(Nc4ccc(C5CNCCO5)cc4)nc32)cc(F)c1CN1CCOCC1 (racemic) [Example 354, [7-(3,5-Difluoro-4-morpholin-4-ylmethyl-phenyl)-7H-pyrrolo[2,3-d]pyrimidin-2-yl]-(4-morpholin-2-yl-phenyl)-amine] |
| ≤ 3 nM | 17 nM | Fc1cc(-n2ccc3cnc(Nc4cnc(N5CCNCC5)c(Cl)c4)nc32)cc(F)c1CN1CCOCC1 [Example 502, (5-Chloro-6-piperazin-1-yl-pyridin-3-yl)-[7-(3,5-difluoro-4-morpholin-4-ylmethyl-phenyl)-7H-pyrrolo[2,3-d]pyrimidin-2-yl]-amine] |
| 3.5 nM | 15 nM | OC1CN(Cc2ccc(Nc3ncc4ccn(-c5cc(F)c(CN6CCOCC6)c(F)c5)c4n3)cc2)C1 [Example 479, 1-{4-[7-(3,5-Difluoro-4-morpholin-4-ylmethyl-phenyl)-7H-pyrrolo[2,3-d]pyrimidin-2-ylamino]-benzyl}-azetidin-3-ol] |
| ≤ 3 nM | 25 nM | Fc1cc(-n2ccc3cnc(Nc4ccc(N5CCNC(C(F)(F)F)C5)nc4)nc32)cc(F)c1CN1CCOCC1 (racemic) [Example 469, [7-(3,5-Difluoro-4-morpholin-4-ylmethyl-phenyl)-7H-pyrrolo[2,3-d]pyrimidin-2-yl]-[6-(3-trifluoromethyl-piperazin-1-yl)-pyridin-3-yl]-amine] |
| ≤ 3 nM | 2.6 nM | Cc1ccc(Nc2ncc3ccn(-c4cc(F)c(CN5CCOCC5)c(F)c4)c3n2)cc1CN1CCC(O)C1 (racemic) [Example 411, 1-{5-[7-(3,5-Difluoro-4-morpholin-4-ylmethyl-phenyl)-7H-pyrrolo[2,3-d]pyrimidin-2-ylamino]-2-methyl-benzyl}-pyrrolidin-3-ol] |
| ≤ 3 nM | 1370 nM | Fc1cc(-n2ccc3cnc(Nc4ccnc(CN5CCC(F)(F)C5)c4)nc32)cc(F)c1CN1CCOCC1 [Example 402, [7-(3,5-Difluoro-4-morpholin-4-ylmethyl-phenyl)-7H-pyrrolo[2,3-d]pyrimidin-2-yl]-[2-(3,3-difluoro-pyrrolidin-1-ylmethyl)-pyridin-4-yl]-amine] |
| ≤ 3 nM | 81.6 nM | O=C1CNCCN1Cc1cc(Nc2ncc3ccn(-c4cc(F)c(CN5CCOCC5)c(F)c4)c3n2)ccn1 [Example 409, 1-{4-[7-(3,5-Difluoro-4-morpholin-4-ylmethyl-phenyl)-7H-pyrrolo[2,3-d]pyrimidin-2-ylamino]-pyridin-2-ylmethyl}-piperazin-2-one] |
| ≤ 3 nM | 487 nM | Fc1cc(-n2ccc3cnc(Nc4ccc(CN5CCNCC5)nc4)nc32)cc(F)c1CN1CCOCC1 [Example 486, [7-(3,5-Difluoro-4-morpholin-4-yl methyl-phenyl)-7H-pyrrolo[2,3-d]pyrimidin-2-yl]-(6-piperazin-1-ylmethyl-pyridin-3-yl)-amine] |
| ≤ 3 nM | 2.8 nM | Fc1cc(-n2ccc3cnc(Nc4ccnc(N5CCNC(C(F)(F)F)C5)c4)nc32)cc(F)c1CN1CCOCC1 (racemic) [Example 364, [7-(3,5-Difluoro-4-morpholin-4-ylmethyl-phenyl)-7H-pyrrolo[2,3-d]pyrimidin-2-yl]-[2-(3-trifluoromethyl-piperazin-1-yl)-pyridin-4-yl]-amine] |

Further lines, the compound ahead of its results:

| Compound | IC50 (GST-JAK2(808-1132)) | IC50 [1] |
| --- | --- | --- |
| C[C@@H]1CN(c2ccc(Nc3ncc4ccn(-c5cc(F)cc(F)c5)c4n3)cn2)C[C@H](C)N1 [Example 453, [7-(3,5-Difluoro-phenyl)-7H-pyrrolo[2,3-d]pyrimidin-2-yl]-[6-(cis-3,5-dimethyl-piperazin-1-yl)-pyridin-3-yl]-amine] | 4.1 nM | 36 nM |
| Cc1ccc(Nc2ncc3ccn(-c4cc(F)c(CN5CCOCC5)c(F)c4)c3n2)cc1CN1C[C@H](C)NC[C@H]1C (racemic) [Example 378, [7-(3,5-Difluoro-4-morpholin-4-ylmethyl-phenyl)-7H-pyrrolo[2,3-d]pyrimidin-2-yl]-[3-((2R,5S)-2,5-dimethyl-piperazin-1-ylmethyl)-4-methyl-phenyl]-amine] | 13 nM | 45 nM |
| Cc1ccc(Nc2ncc3ccn(-c4ccc(C(=O)N5CCS(=O)(=O)CC5)c(F)c4)c3n2)cc1CN1CCNC(C(F)(F)F)C1 (racemic) [Example 403] | ≤ 3 nM | 22.5 nM |
| Cc1ccc(Nc2ncc3ccn(-c4cc(F)c(CN5CCCC5=O)c(F)c4)c3n2)cc1CN1CCNCC1 [Example 463, 1-{2,6-Difluoro-4-[2-(4-methyl-3-piperazin-1-ylmethyl-phenylamino)-pyrrolo[2,3-d]pyrimidin-7-yl]-benzyl}-pyrrolidin-2-one] | ≤ 3 nM | 48 nM |
| COc1cc(Nc2ncc3ccn(-c4cc(F)c(CN5CCOCC5)c(F)c4)c3n2)cnc1N1C[C@@H](C)N[C@@H](C)C1 [Example 497, [7-(3,5-Difluoro-4-morpholin-4-ylmethyl-phenyl)-7H-pyrrolo[2,3-d]pyrimidin-2-yl]-[6-(cis-3,5-dimethyl-piperazin-1-yl)-5-methoxy-pyridin-3-yl]-amine] | ≤ 3 nM | 7.7 nM |
| Cc1ccc(Nc2ncc3ccn(-c4cc(F)c(CN5CCS(=O)(=O)CC5)c(F)c4)c3n2)cc1CN1CCC(O)C1 (racemic) [Example 425, 1-(5-{7-[4-(1,1-Dioxido-thiomorpholin-4-ylmethyl)-3,5-difluoro-phenyl]-7H-pyrrolo[2,3-d]pyrimidin-2-ylamino}-2-methyl-benzyl)-pyrrolidin-3-ol] | ≤ 3 nM | 3.6 nM |
| C[C@@H]1CN(c2ccc(Nc3ncc4ccn(-c5cc(F)c(CN6CCCC6=O)c(F)c5)c4n3)cn2)C[C@H](C)N1 [Example 458, 1-(4-{2-[6-(cis-3,5-Dimethyl-piperazin-1-yl)-pyridin-3-ylamino]-pyrrolo[2,3-d]pyrimidin-7-yl}-2,6-difluoro-benzyl)-pyrrolidin-2-one] | ≤ 3 nM | 1.4 nM |
| Fc1cc(-n2ccc3cnc(Nc4ccc(OC5CCOCC5)nc4)nc32)cc(F)c1CN1CCOCC1 [Example 515, [7-(3,5-Difluoro-4-morpholin-4-ylmethyl-phenyl)-7H-pyrrolo[2,3-d]pyrimidin-2-yl]-[6-(tetrahydro-pyran-4-yloxy)-pyridin-3-yl]-amine] | ≤ 3 nM | 54 nM |
| Fc1cc(-n2ccc3cnc(Nc4ccc(OCC5CCOCC5)nc4)nc32)cc(F)c1CN1CCOCC1 [Example 517, [7-(3,5-Difluoro-4-morpholin-4-ylmethyl-phenyl)-7H-pyrrolo[2,3-d]pyrimidin-2-yl]-[6-(tetrahydro-pyran-4-ylmethoxy)-pyridin-3-yl]-amine] | ≤ 3 nM | 69.5 nM |
| CC(C)S(=O)(=O)Nc1ccc(-n2ccc3cnc(Nc4ccc(N5C[C@@H](C)N[C@@H](C)C5)nc4)nc32)cc1 [Example 375, Propane-2-sulfonic acid (4-{2-[6-(cis-3,5-dimethyl-piperazin-1-yl)-pyridin-3-ylamino]-pyrrolo[2,3-d]pyrimidin-7-yl}-phenyl)-amide] | 6.5 nM | 7.7 nM |
| C[C@@H]1CN(c2ncc(Nc3ncc4ccn(-c5cc(F)c(CN6CCOCC6)c(F)c5)c4n3)cc2C#N)C[C@H](C)N1 [Example 490, 5-[7-(3,5-Difluoro-4-morpholin-4-ylmethyl-phenyl)-7H-pyrrolo[2,3-d]pyrimidin-2-ylamino]-2-(cis-3,5-dimethyl-piperazin-1-yl)-nicotinonitrile] | 3.4 nM | 14 nM |
